Source: patent publication US9751875B2, “Quinine compounds, and optical isomers, preparation method and medical use thereof” (BEIJING FSWELCOME TECHNOLOGY DEVELOPMENT CO., LTD., priority 2013, dated 2017)
Like-named read-outs stand apart in the source and are kept apart here.

What was measured:
[1] = tested on: tracheal smooth muscle from guinea pigs (contraction induced by 3 × 10^−6 mol/L of CCh); assay: Antagonism in vitro of contraction of isolated tracheal smooth muscle from guinea pigs induced by carbachol (CCh); format: cell-based, guinea pig; details: cumulative dosing
Text: Preparation of the Isolated Tracheal Smooth Muscle Specimen from a Guinea Pig:
After a guinea pig was narcotized with urethane, the trachea between the throat and carina of the guinea pig was taken out rapidly, and placed in the Krebs-Henseleit (K-H) solution (composition (g/L): NaCl 6.92, KCl 0.35, CaCl2 0.28, KH2PO4 0.16, MgSO4.7H2O 0.4568, NaHCO3 2.1, Glucose 2.0) with a mixture gas of 5% CO2 and 95% O2 purged. After loose connective tissues and fats around the trachea were separated, the trachea was cut into trachea pieces having a width of about 3 mm and a length of 20 mm by a surgical scissor, with both ends of the trachea piece ligated with 4˜0 silk suture, and then placed into a thermostatic bath containing 5 ml of K—H solution (pH 7.4) at 37° C., with the mixture gas of 5% CO2 and 95% O2 continuously purged. A muscle tension transducer was connected to the upper end so as to apply 1.0 g of resting tension to the specimen, the change of the tension was recorded, the culture solution was replaced every 20 min, and the test was started after being balanced for 60 min.
Administration method: After the trachea piece was stabilized, 3×10^−6 mol/L of CCh was added into a bath, and after the contractile tension of the trachea piece reached a peak level, the example compounds, ipratropium bromide and tiotropium bromide were added into a Magnus bath by a cumulative dosing regimen with a dosage of 10^−9˜10^−5 mol, respectively, and the diastolic condition of the trachea piece was observed: if no response occurred (below the threshold concentration), a next dosage was continued to be added in sequence; if response occurred, after it reached a diastolic plateau, a next dosage was further added. The above operation was repeated until the contractile curve reached the minimum value. Finally, 10^−6 mol/L of isoprenaline was added so that the maximum relaxation would be reached and the curve was recorded.
Statistical approach: The result was expressed as mean ±standard deviation, and counted by Sigma Stat statistical package. The data was analyzed by using variance analysis, the comparison among means of a plurality of specimen was performed by using Student-Newman-Keuls(SNK) test; statistical significant level α=0.05 (bilateral).
Compounds shown in Table 5 were further prepared according to the present invention, and their IC50 […] of resistance to the contraction of tracheal smooth muscle from guinea pigs induced by a concentration of 3×10^−6 mol/L of CCh was determined.

[2] = tested on: m1, m2 and m3 subtypes of M receptor; assay: Competitive [3H]-QNB binding on membranes of CHO cells transfected with m1, m2, m3; selectivity on subtypes of M receptor; details: ratio of Ki, n = 6
[3] = tested on: tracheal smooth muscle from guinea pigs (contraction induced by 3 × 10^−6 mol/L of CCh); assay: Antagonism in vitro of contraction of isolated tracheal smooth muscle from guinea pigs induced by carbachol (CCh); format: cell-based, guinea pig
[4] = tested on: bronchus in guinea pigs (contractile response induced by Mch); assay: Antagonism of contractile response of bronchus in guinea pigs induced by methacholine (Mch); airway resistance and pulmonary dynamic compliance; format: in vivo, guinea pig; details: Mch 10 μg/kg iv after 30 min; for Cdyn(ml/cm H2O) / Raw (cm H2O/ml/s): Mean ± S.E.M
Text: Determination of tidal volume, airway flow rate, and transpulmonary pressure: 1.5 g/kg of urethane was intraperitoneally injected to narcotize the guinea pig. The guinea pig was fixed supinely and treated with tracheal intubation, and the external jugular vein was separated and an indwelling needle was inserted; the guinea pig was enclosed into a body plethysmograph, a blunt needle for intubation into thoracic cavity was inserted between ribs 4˜5 of the prothorax of the guinea pig, and the intrathoracic pressure could be measured (with a negative value of a water column of a water manometer and a fluctuation with the breath of the guinea pig as marks). After stabilization, the values of the tidal volume, airway flow rate and transpulmonary pressure of the guinea pig prior to administration of Mch were recorded by a MedLab biological signal collection and processing system as base values. 10 μg/kg body weight of Mch was intravenously injected. The changes of the airway flow rate, tidal volume and transpulmonary pressure of the guinea pig within 5 minutes were observed. Calculation of Raw and Cdyn: the changes of the increased percentage of Raw value and the decreased percentage of Cdyn after […] of Mch were calculated.
Calculation formulas of Raw and Cdyn were respectively: […]
Dose-effect relationship: For each of the example compounds, 27 guinea pigs were randomly divided into […]: a solvent control group with […], a group with 1 μg/kg of the example compounds 4, 10, 14, and 26, a group with 3 μg/kg of the example compounds 4, 10, 14, and 26 and a group with 10 μg/kg of the example compounds 4, 10, 14, and 26; after 30 min from the dropping of the above concentration of drugs in the airway, 10 μg/kg body weight of Mch was intravenously injected for excitation, and airway resistance (Raw) and pulmonary dynamic compliance (Cdyn) within 5 min were determined. […]

[5] = read-out: IC50 (μM), antagonism in vitro against the contraction of the tracheal smooth muscle induced by CCh, 3 × 10^−6 mol/L of CCh

Compound: OC(CO[C@@H]1C[N+]2(CCCOc3ccccc3)CCC1CC2)(c1ccccc1)C1CCC1.[Br-] (stereo partly drawn) [Example 16, (2R,3R)-3-[(2-cyclobutyl-2-hydroxyl-2-phenyl)ethoxyl]-1-(3-phenoxypropyl)-1-azabicyclo[2,2,2]octane bromide]
- IC50 [1, 5]: 0.0573 µM
- Selectivity m1/m2, Mx/My = Ki(y)/Ki(x) [2]: 13.5
- Selectivity m1/m3, Mx/My = Ki(y)/Ki(x) [2]: 0.67
- Selectivity m2/m3, Mx/My = Ki(y)/Ki(x) [2]: 0.037
- Onset time [3]: 6.38 min
- Time for eliminating inhibition effect (min) [3]: more than 300 min

Compound: O[C@@](COC1C[N+]2(CCCOc3ccccc3)CCC1CC2)(c1ccccc1)C1CCCCC1.[Br-] (stereo partly drawn) [Example 10, (2R,3R)-3-[(2-cyclohexyl-2-hydroxyl-2-phenyl)ethoxyl]-1-(3-phenoxypropyl)-1-azabicyclo[2,2,2]octane bromide]
- IC50 ([1]; Cavia porcellus, read-out: IC50 (μM), antagonism in vitro against the contraction of the tracheal smooth muscle induced by CCh, 3 × 10^−6 mol/L of CCh): 0.0227 µM
- inhibition ratio against the decrease of pulmonary dynamic compliance ([4]; 1 μg/kg dropped in the airway): 10.9%
- inhibition ratio against the increase of airway resistance ([4]; 1 μg/kg dropped in the airway): 63.7%
- Cdyn(ml/cm H2O) ([4]; 1 μg/kg dropped in the airway): 0.098 ± 0.009 ml/cm H2O
- Raw (cm H2O/ml/s) ([4]; 1 μg/kg dropped in the airway): 0.745 ± 0.089 cm H2O/ml/s
- inhibition ratio against the decrease of pulmonary dynamic compliance ([4]; 3 μg/kg dropped in the airway): 45.9%
- inhibition ratio against the increase of airway resistance ([4]; 3 μg/kg dropped in the airway): 84.5%
- Cdyn(ml/cm H2O) ([4]; 3 μg/kg dropped in the airway): 0.135 ± 0.007 ml/cm H2O
- Raw (cm H2O/ml/s) ([4]; 3 μg/kg dropped in the airway): 0.563 ± 0.057 cm H2O/ml/s
- inhibition ratio against the decrease of pulmonary dynamic compliance ([4]; 10 μg/kg dropped in the airway): 49.8%
- inhibition ratio against the increase of airway resistance ([4]; 10 μg/kg dropped in the airway): 91.3%
- Cdyn(ml/cm H2O) ([4]; 10 μg/kg dropped in the airway): 0.189 ± 0.015 ml/cm H2O
- Raw (cm H2O/ml/s) ([4]; 10 μg/kg dropped in the airway): 0.531 ± 0.092 cm H2O/ml/s
- Onset time [3]: 6.24 min
- Time for eliminating inhibition effect (min) [3]: more than 300 min

Compound: OC(CO[C@@H]1C[N+]2(CCCOc3ccccc3)CCC1CC2)(c1ccccc1)C1CCCC1.[Br-] (stereo partly drawn) [Example 4, (2R,3R)-3-[(2-cyclopentyl-2-hydroxyl-2-phenyl)ethoxyl]-1-(3-phenoxypropyl)-1-azabicyclo[2,2,2]octane bromide]
- IC50 [1, 5]: 0.0278 µM
- Selectivity m1/m2, Mx/My = Ki(y)/Ki(x) [2]: 30.2
- Selectivity m1/m3, Mx/My = Ki(y)/Ki(x) [2]: 0.332
- Selectivity m2/m3, Mx/My = Ki(y)/Ki(x) [2]: 0.011
- inhibition ratio against the decrease of pulmonary dynamic compliance ([4]; 1 μg/kg dropped in the airway): 11.2%
- inhibition ratio against the increase of airway resistance ([4]; 1 μg/kg dropped in the airway): 64.2%
- Cdyn(ml/cm H2O) ([4]; 1 μg/kg dropped in the airway): 0.105 ± 0.012 ml/cm H2O
- Raw (cm H2O/ml/s) ([4]; 1 μg/kg dropped in the airway): 0.733 ± 0.088 cm H2O/ml/s
- inhibition ratio against the decrease of pulmonary dynamic compliance ([4]; 3 μg/kg dropped in the airway): 46.6%
- inhibition ratio against the increase of airway resistance ([4]; 3 μg/kg dropped in the airway): 86.1%
- Cdyn(ml/cm H2O) ([4]; 3 μg/kg dropped in the airway): 0.137 ± 0.015 ml/cm H2O
- Raw (cm H2O/ml/s) ([4]; 3 μg/kg dropped in the airway): 0.552 ± 0.060 cm H2O/ml/s
- inhibition ratio against the decrease of pulmonary dynamic compliance ([4]; 10 μg/kg dropped in the airway): 50.0%
- inhibition ratio against the increase of airway resistance ([4]; 10 μg/kg dropped in the airway): 90.8%
- Cdyn(ml/cm H2O) ([4]; 10 μg/kg dropped in the airway): 0.196 ± 0.017 ml/cm H2O
- Raw (cm H2O/ml/s) ([4]; 10 μg/kg dropped in the airway): 0.513 ± 0.071 cm H2O/ml/s
- Onset time [3]: 6.37 min
- Time for eliminating inhibition effect (min) [3]: more than 300 min

Compound: CN1CCN(CC(=O)N2c3ccccc3C(=O)Nc3cccnc32)CC1 [Pirenzepine, reference compound]
- Selectivity m1/m2, Mx/My = Ki(y)/Ki(x) [2]: 169.82
- Selectivity m1/m3, Mx/My = Ki(y)/Ki(x) [2]: 13.49
- Selectivity m2/m3, Mx/My = Ki(y)/Ki(x) [2]: 0.079

Compound: (2R,3S),(2S,3R)-3-[(2-cyclopentyl-2-hydroxyl-2-phenyl)ethoxyl]-1-(3-phenoxypropyl)-1-azabicyclo[2,2,2]octane bromide [Example 5]
- IC50 ([1]; 3 × 10^−6 mol/L of CCh, read-out: IC50 (μM), antagonism in vitro against the contraction of the tracheal smooth muscle induced by CCh): 1.03 µM
- Selectivity m1/m2, Mx/My = Ki(y)/Ki(x) [2]: 45.6
- Selectivity m1/m3, Mx/My = Ki(y)/Ki(x) [2]: 0.502
- Selectivity m2/m3, Mx/My = Ki(y)/Ki(x) [2]: 0.011
- Onset time [3]: 7.01 min
- Time for eliminating inhibition effect (min) [3]: more than 300 min
